Measurements published in ChEMBL document CHEMBL3813666, “Discovery of 3-benzyl-1,3-benzoxazine-2,4-dione analogues as allosteric mitogen-activated kinase kinase (MEK) inhibitors and anti-enterovirus 71 (EV71) agents” (Bioorg Med Chem, 2016).
Calls of active or inactive are those of the source. No cut-off for these calls is given here.

Key:
[1] = target: Serine/threonine-protein kinase B-raf (Homo sapiens, UniProt P15056, Y340D/Y341D)
[2] = Cytotoxicity activity against human rhabdomyosarcoma cells after 24 hrs by MTT assay; type: cell-based, Rhabdomyosarcoma cell
[3] = target: Dual specificity mitogen-activated protein kinase kinase; MEK1/2 (Homo sapiens) (UniProt P36507+Q02750); test: Inhibition of MEK1/2 phosphorylation in human rhabdomyosarcoma cells infected with EV71 BC08 GU475127 at 6.25 to 25 uM pre-treated for 1 hr followed by viral infection measured after 24 hrs by western blotting analysis
Chain of Dual specificity mitogen-activated protein kinase kinase; MEK1/2 (Homo sapiens) (P36507 whole entry, looked up): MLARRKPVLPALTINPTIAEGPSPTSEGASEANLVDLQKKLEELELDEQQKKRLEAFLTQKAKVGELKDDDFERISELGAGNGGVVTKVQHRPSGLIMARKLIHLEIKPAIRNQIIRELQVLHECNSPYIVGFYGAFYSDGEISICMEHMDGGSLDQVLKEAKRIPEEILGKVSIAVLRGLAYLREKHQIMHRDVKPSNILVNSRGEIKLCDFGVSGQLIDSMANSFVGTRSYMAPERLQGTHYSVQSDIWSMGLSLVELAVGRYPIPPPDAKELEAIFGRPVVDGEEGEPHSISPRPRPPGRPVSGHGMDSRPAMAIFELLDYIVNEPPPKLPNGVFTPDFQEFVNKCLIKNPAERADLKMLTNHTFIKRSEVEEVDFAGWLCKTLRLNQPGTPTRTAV
Chain of Dual specificity mitogen-activated protein kinase kinase; MEK1/2 (Homo sapiens) (Q02750 whole entry, looked up): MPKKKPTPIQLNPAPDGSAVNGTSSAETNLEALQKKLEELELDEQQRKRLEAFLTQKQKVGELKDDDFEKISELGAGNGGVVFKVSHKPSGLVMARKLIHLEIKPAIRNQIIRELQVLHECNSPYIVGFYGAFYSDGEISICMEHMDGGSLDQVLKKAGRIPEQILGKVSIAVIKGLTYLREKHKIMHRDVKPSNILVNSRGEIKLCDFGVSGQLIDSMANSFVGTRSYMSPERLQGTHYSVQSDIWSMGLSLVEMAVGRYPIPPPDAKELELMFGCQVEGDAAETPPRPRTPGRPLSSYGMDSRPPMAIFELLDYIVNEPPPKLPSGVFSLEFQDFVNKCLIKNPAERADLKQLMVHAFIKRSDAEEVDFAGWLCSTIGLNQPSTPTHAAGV

[4] = system: Enterovirus A71; test: Inhibition of VP1 expression in human rhabdomyosarcoma cells infected with EV71 BC08 GU475127 pre-treated for 1 hr followed by viral infection measured after 24 hrs by western blotting analysis
[5] = Therapeutic index, ratio of CC50 for human rhabdomyosarcoma cells to EC50 for EV71 BC08 GU475127 infected in human rhabdomyosarcoma cells; settings: read-out: Ratio CC50/EC50
[6] = Non-competitive inhibition of N-terminal GST-tagged human BRAF/MEK1/RAF1 Y340D/Y341D double mutant measured after 2 hrs in presence of 300 uM of ATP by TR-FRET assay
[7] = Non-competitive inhibition of N-terminal GST-tagged human BRAF/MEK1/RAF1 Y340D/Y341D double mutant measured after 2 hrs in presence of 100 uM of ATP by TR-FRET assay
[8] = Non-competitive inhibition of N-terminal GST-tagged human BRAF/MEK1/RAF1 Y340D/Y341D double mutant measured after 2 hrs in presence of 33.33 uM of ATP by TR-FRET assay
[9] = system: Enterovirus A71; test: Antiviral activity against EV71 BC08 GU475127 infected in human rhabdomyosarcoma cells assessed as reduction in viral induced cytopathic effect measured after 24 hrs by phase-contrast microscopy; type: functional, organism-based; settings: Enterovirus A, BC08 GU475127, 24 h
[10] = target: Dual specificity mitogen-activated protein kinase kinase 1 (Homo sapiens) (UniProt Q02750); settings: at 6.25 to 25 µM
Chain of Dual specificity mitogen-activated protein kinase kinase 1 (Homo sapiens) (Q02750 whole entry): as the sequence (Q02750 whole entry, looked up) above

Chain of Serine/threonine-protein kinase B-raf (P15056 whole entry, looked up, stated change not applied): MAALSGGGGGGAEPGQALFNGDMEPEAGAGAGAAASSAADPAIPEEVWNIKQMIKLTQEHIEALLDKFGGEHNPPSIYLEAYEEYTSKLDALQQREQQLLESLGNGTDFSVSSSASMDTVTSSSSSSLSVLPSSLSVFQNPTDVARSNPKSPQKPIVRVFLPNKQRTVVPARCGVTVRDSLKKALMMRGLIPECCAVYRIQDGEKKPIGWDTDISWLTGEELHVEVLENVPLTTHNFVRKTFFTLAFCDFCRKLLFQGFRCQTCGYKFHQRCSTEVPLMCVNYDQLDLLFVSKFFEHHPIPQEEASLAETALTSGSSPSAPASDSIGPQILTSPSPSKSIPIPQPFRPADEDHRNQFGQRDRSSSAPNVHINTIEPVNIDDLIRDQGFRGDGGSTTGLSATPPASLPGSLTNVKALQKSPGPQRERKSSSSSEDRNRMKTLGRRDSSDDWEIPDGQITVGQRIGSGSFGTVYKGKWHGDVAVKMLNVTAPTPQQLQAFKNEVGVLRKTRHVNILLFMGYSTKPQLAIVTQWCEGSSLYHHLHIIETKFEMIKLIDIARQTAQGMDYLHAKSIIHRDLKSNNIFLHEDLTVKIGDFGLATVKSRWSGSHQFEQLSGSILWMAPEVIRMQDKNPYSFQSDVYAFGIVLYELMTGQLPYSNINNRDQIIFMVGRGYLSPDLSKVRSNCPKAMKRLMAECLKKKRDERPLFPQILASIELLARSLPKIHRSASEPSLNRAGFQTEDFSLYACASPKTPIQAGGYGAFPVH

| Compound | IC50 [1] | further results |
| --- | --- | --- |
| CN(C)C(=O)Oc1ccc2c(=O)n(Cc3ccc(F)cc3)c(=O)oc2c1 | > 10000 nM |  |
| CN(C)C(=O)Oc1ccc2c(=O)n(Cc3cccc(NS(C)(=O)=O)c3)c(=O)oc2c1 | 5920 nM |  |
| CNS(=O)(=O)Nc1cccc(Cn2c(=O)oc3cc(OC(=O)C(C)C)ccc3c2=O)c1F | 720 nM |  |
| CNS(=O)(=O)Nc1cccc(Cn2c(=O)oc3cc(OS(C)(=O)=O)ccc3c2=O)c1F | 2540 nM |  |
| CN(C)C(=O)Oc1ccc2c(=O)n(Cc3ccc(NS(C)(=O)=O)cc3)c(=O)oc2c1 | > 10000 nM |  |
| CN(C)C(=O)Oc1ccc2c(=O)n(Cc3ccc(F)c(NS(C)(=O)=O)c3)c(=O)oc2c1 | 9870 nM |  |
| CNS(=O)(=O)Nc1cccc(Cn2c(=O)oc3cc(OC(C)=O)ccc3c2=O)c1F | 610 nM |  |
| CCS(=O)(=O)Nc1cccc(Cn2c(=O)oc3cc(OC(=O)N(C)C)ccc3c2=O)c1F | 200 nM |  |
| CN(C)C(=O)Oc1ccc2c(=O)n(Cc3cccc([N+](=O)[O-])c3)c(=O)oc2c1 | > 10000 nM |  |
| CC(=O)Nc1cccc(Cn2c(=O)oc3cc(OC(=O)N(C)C)ccc3c2=O)c1 | > 10000 nM |  |
| CCS(=O)(=O)Oc1ccc2c(=O)n(Cc3cccc(NS(=O)(=O)NC)c3F)c(=O)oc2c1 | 670 nM |  |
| CN(C)C(=O)Oc1ccc2c(=O)n(Cc3cccc(NS(N)(=O)=O)c3F)c(=O)oc2c1 | 840 nM |  |
| CC(C)NS(=O)(=O)Nc1cccc(Cn2c(=O)oc3cc(OC(=O)N(C)C)ccc3c2=O)c1F | 210 nM |  |
| CCCC(=O)Oc1ccc2c(=O)n(Cc3cccc(NS(=O)(=O)NC)c3F)c(=O)oc2c1 | 1200 nM |  |
| CN(C)C(=O)Oc1ccc2oc(=O)n(Cc3cccc(NS(C)(=O)=O)c3F)c(=O)c2c1 | > 10000 nM |  |
| CN(C)C(=O)Oc1ccc2c(=O)n(Cc3cccc(NS(=O)(=O)Nc4ccccc4)c3F)c(=O)oc2c1 | 1640 nM |  |
| CN(C)C(=O)Oc1ccc2c(=O)n(Cc3ccccc3F)c(=O)oc2c1 | > 10000 nM |  |
| CNS(=O)(=O)Nc1cccc(Cn2c(=O)oc3cc(OC(=O)N(C)C)ccc3c2=O)c1F | 55 nM | CC50 at 24 h [2]: > 100000 nM; inhibition [3]: Active; inhibition [4]: Dose-dependent effect; selectivity ratio [5]: > 98; IC50 [6]: 54 nM; IC50 [7]: 56 nM; IC50 [8]: 181 nM; EC50 [9]: 1020 nM; inhibition [10]: Active |
| CN(C)C(=O)Oc1ccc2c(=O)n(Cc3cccc(NS(C)(=O)=O)c3F)c(=O)oc2c1 | 300 nM |  |
| CN(C)C(=O)Oc1ccc2c(=O)n(Cc3cccc(NS(=O)(=O)NCCC#N)c3F)c(=O)oc2c1 | 60 nM | CC50 at 24 h [2]: > 100000 nM; inhibition [3]: Active; inhibition [4]: Dose-dependent effect; selectivity ratio [5]: > 25; EC50 [9]: 3920 nM |
| CN(C)C(=O)Oc1ccc2c(=O)n(Cc3ccccc3NS(C)(=O)=O)c(=O)oc2c1 | > 10000 nM |  |
| CNC(=O)c1cc(Oc2ccc(NC(=O)Nc3ccc(Cl)c(C(F)(F)F)c3)cc2)ccn1 [SORAFENIB] |  | CC50 at 24 h [2]: 7050 nM |
| O=C(NOC[C@H](O)CO)c1ccc(F)c(F)c1Nc1ccc(I)cc1F |  | inhibition [4]: Dose-dependent effect |
| CN(C)C(=O)Oc1ccc2c(=O)n(Cc3cccc(NS(=O)(=O)NCC(F)(F)F)c3F)c(=O)oc2c1 | 420 nM |  |
| CCC(=O)Oc1ccc2c(=O)n(Cc3cccc(NS(=O)(=O)NC)c3F)c(=O)oc2c1 | 230 nM |  |
| COc1ccc2c(=O)n(Cc3cccc(NS(=O)(=O)NCCC#N)c3F)c(=O)oc2c1 | > 10000 nM |  |
| CN(C)C(=O)Oc1ccc2c(=O)n(Cc3cccc(NS(=O)(=O)NCc4ccccc4)c3F)c(=O)oc2c1 | 1490 nM |  |
| CS(=O)(=O)Nc1cccc(Cn2c(=O)oc3cc(OC(=O)c4ccccc4)ccc3c2=O)c1F | > 10000 nM |  |
